Measurements taken from patent publication US20070037800A1, “Method of treating neurological disorders using clotrimazole and derivatives thereof” (EnVivo Pharmaceuticals, Inc., priority 2005, published 2007).
“And” between values parts separate entries of the source, which are not always exact repeats. Equal entries are not always repeated. One block for each compound: values may come before it.

Legend:
[1] = system: HD model flies (elav-GAL4 UAS-htt128Q); experiment: Assay of locomotor activity (climbing speed) using the transgenic Drosophila HD model; type: in vivo; parameters: Early Speed Effect Size, Summary / Late Speed Effect Size, Summary / Early Speed Effect Size / Late Speed Effect Size / Early Speed Adj Value / Late Speed Adj Value / Early Speed Effect Size, combined campaigns / Late Speed Effect Size, combined campaigns: unit not given here; conditions: for Early Speed Effect Size, combined campaigns / Early Speed Percent TSA, combined campaigns / Late Speed Effect Size, combined campaigns / Late Speed Percent TSA, combined campaigns: drawing 84, drawing 89
Protocol: Female “activator” or “driver” flies were engineered to contain the neuronal specific drivers elav-GAL4 or nirvana-GAL4 in a heat shock-hid Y (phs-hidY or HS-hid+ on Y chomosome) background (Starz-Gaiano et al., 2001). The hid gene is a pro-apoptotic gene, which is expressed in this line by a heat inducible promoter. These flies can be heat shocked in bottles twice over 2 days for 2 hours to kill male larvae and thereby produce massive numbers of elav-GAL4 or nirvana-GAL4 virgin females.
For the mass production of males (either UAS-htt128Q[F27B]/UAS-htt128Q[F27B], the disease transgenes were moved into lines that contain an attached X-chromosome with the same phs-hid element (X^XPhs-hidY) used above. In this scheme the hid gene is present only in female flies and therefore is used to produce large numbers of male flies by heat shock. The massive collection of virgin female elav-GAL4 flies are crossed with the massive collection of males that contain the silent disease-transgene. Their progeny, the F1 generation, are the “assay flies” (e.g., elav-GAL4UAS-htt128Q[F27B]). These assay flies are robotically distributed into drugged assay vials.
The HD Drosophila model express exons 1 to 4 of the human huntingtin gene with 128Q repeats in exon 1. The construct was cloned into the Drosophila transformation vector, pUAST. These were then crossed to GAL4 driver lines that direct expression either to the eye (GMR-GAL4 promoter) or to neurons (elav-GAL4 promoter). […] Progressive degeneration of the photoreceptors was observed after several days of adult life. The properties of the HD128Q flies were consistent with those reported by others for two other strains in which exon-1 containing expanded repeats was expressed in the eye (Jackson et al., 1998; Steffan et al., 2001—US20040142859). To test the effects on motor function of the HD mutation, HD128Q lines were examined in which the transgene was expressed in all neurons. Motor function was assayed by tapping flies in a vial to the bottom and measuring the number of flies that are able to climb to a specified height within a specific length of time. When tapped to the bottom of a vial, wild-type flies rapidly climb to the top, where most of them remain. […] The decline in motor performance was progressive, leading to early death. […] The HD128Q model thus has a functional deficit that in its phenotypic and neuropathological characteristics appears to be related to that seen in the human disease. Moreover, as the deficit is quantifiable and reproducible, it is suitable for automated high-throughput screening.
Standard environmental conditions were followed to establish that different metrics detect differences between disease and control flies. A comparison of compound-treated HD flies and untreated HD flies was also included. The positive control compound tested was the Histone Deacetylase (HDAC) inhibitor Trichostatin-A (TSA).
In an assay run (typically corresponding to one day of an entire multi-day assay) the following process was followed. Each tube was dropped onto a surface, causing the flies to fall to the bottom of the tube and be subjected to impact shock stimulation. Their immediate negative geotaxis response to that event was thereafter captured in a 7.5 second movie. For each tube, this step was repeated five times, giving a total of five repeat videos per tube and run. The raw data for each video were analyzed and trajectories following the movements of individual flies in a tube were generated. The method for analyzing fly trajectories is described in published U.S. Patent Application 2004/0076318A1, which is hereby incorporated by reference in its entirety. The trajectories consisted of a list of x- and y-coordinates mapping out the positions of all the flies in the video, as well as measurements of size, orientation, length and width of the flies, with one list entry for every frame from when the fly started moving in one frame until it stopped in another. […]

[2] = system: KA-induced lesion in C57B1/6N mice; conditions: intra-striatal KA, Cosi et al., 2004; cited from earlier work
[3] = food conc 100, days 8 to 10, vs DMSO carrier, single campaigns
[4] = food conc 200, campaign drawing 91, day range not given, late by column position
[5] = conc 100, days 1 to 7, campaigns drawing 83
[6] = conc 100, days 8 to 10, campaigns drawing 83
[7] = conc 300, days 1 to 7, campaigns drawing 80, drawing 83, drawing 85, drawing 88
[8] = conc 300, days 8 to 10, campaigns drawing 80, drawing 83, drawing 85, drawing 88
[9] = food conc 100 (unit not printed; b38: μM), days 1 to 7, single campaigns
[10] = food conc 100, days 8 to 10, single campaigns
[11] = conc 100, days 1 to 7, campaigns drawing 80, drawing 83, drawing 88
[12] = conc 100, days 8 to 10, campaigns drawing 80, drawing 83, drawing 88

SMILES: Fc1ccc(C(c2ccccc2)(c2ccc(F)cc2)n2ccnc2)cc1
Early Speed Effect Size ([1]; food conc 50 (unit not printed; b38: μM), days 1 to 7, vs DMSO carrier, single campaigns): 0.31
Early Speed Percent TSA ([1]; food conc 50, days 1 to 7, effect size as percentage of positive control TSA, single campaigns): 16.8%
Late Speed Percent TSA ([1]; food conc 50, days 8 to 10, effect size as percentage of TSA, single campaigns): 12.5%
Late Speed Effect Size ([1]; food conc 50, days 8 to 10, vs DMSO carrier, single campaigns): 0.33
Early Speed Percent TSA ([1]; food conc 100, days 1 to 7, effect size as percentage of TSA, single campaigns): 56.8%
Early Speed Effect Size ([1]; food conc 100, days 1 to 7, vs DMSO carrier, single campaigns): 1.04
Late Speed Percent TSA ([1]; food conc 100, days 8 to 10, effect size as percentage of TSA, single campaigns): 49.9%
Late Speed Effect Size [1, 3]: 1.32
Early Speed Effect Size ([1]; food conc 200 (unit not given), campaign drawing 91, day range not given, early by column position): 1.23
Early Speed Percent TSA ([1]; food conc 200, campaign drawing 91, day range not given, early by column position): 67.2%
Late Speed Effect Size [1, 4]: 0.8
Late Speed Percent TSA [1, 4]: 30.2%

SMILES: FC(F)(F)c1cccc(C(c2ccccc2)(c2ccccc2)n2ccnc2)c1 [1-(3-(TRIFLUOROMETHYL)TRITYL)IMIDAZOLE, 1-(3-(trifluoromethyl)trityl)imidazole]
Early Speed Effect Size, combined campaigns [1, 5]: −0.159
Early Speed Percent TSA, combined campaigns [1, 5]: −4.3%
Late Speed Effect Size, combined campaigns [1, 6]: 0.344
Late Speed Percent TSA, combined campaigns [1, 6]: 7.6%
Early Speed Effect Size, combined campaigns [1, 7]: 1.003
Early Speed Percent TSA, combined campaigns [1, 7]: 45.6%
Late Speed Effect Size, combined campaigns [1, 8]: 1.798
Late Speed Percent TSA, combined campaigns [1, 8]: 68.2%
Early Speed Adj Value [1, 9]: 10.37 and 10.38 and 10.47
Late Speed Adj Value [1, 10]: 5.094 and 5.776 and 5.811
Early Speed Adj Value ([1]; food conc 300 (unit not given), days 1 to 7, single campaigns): 11.11 and 10.33 (2×) and 10.9 and 11.1 and 11.02
Late Speed Adj Value ([1]; food conc 300, days 8 to 10, single campaigns): 7.096 and 5.024 and 5.921 and 7.137 and 6.976 and 6.601
Late Speed Effect Size ([1]; food conc 300, days 8 to 10, vs DMSO carrier, single campaigns): 2.88 and 1.62 and 1.96

SMILES: Cl.FC(F)(F)c1cccc(C(c2ccccc2)(c2ccccc2)n2ccnc2)c1 [1-(3-(trifluoromethyl)trityl)imidazole hydrochloride]
Effect in Drosophila model of HD ([1]; vs carrier controls, metrics early speed (days 1-7) and late speed (days 8-10)): had therapeutic effect

SMILES: c1ccc(C(c2ccccc2)(c2ccccc2)n2ccnc2)cc1 [1-triphenylmethyl imidazole]
Early Speed Effect Size, combined campaigns [1, 11]: 0.186
Early Speed Percent TSA, combined campaigns [1, 11]: 9.6%
Late Speed Effect Size, combined campaigns [1, 12]: 0.179
Late Speed Percent TSA, combined campaigns [1, 12]: 6.9%
Early Speed Adj Value [1, 9]: 10.62 and 9.998 and 10.71 and 11.18 and 10.51 and 10.31
Early Speed Adj Value ([1]; food conc 100 (unit not printed; b38: μM), days 1 to 7, single campaigns, listed as 1-(triphenylmethyl)imidazole): 10.62 and 10.71
Late Speed Adj Value [1, 10]: 5.547 and 5.811 and 4.932 and 5.407 and 5.092 and 5.877
Late Speed Adj Value ([1]; food conc 100, days 8 to 10, single campaigns, listed as 1-(triphenylmethyl)imidazole): 5.81 and 5.41
Late Speed Effect Size [1, 3]: 0.86 and 0.62

SMILES: NC(=O)c1ccccc1 [Benzamide]
KA-induced decreases in striatal levels of NAD+ and ATP [2]: partially prevented
KA-induced lesions and astrogliosis [2]: partially prevented

melting point: 205 °C
SMILES: Clc1ccccc1C(c1ccccc1)(c1ccccc1)N1CCOCC1 [Example 1(f), 4-[(2-Chlorophenyl)-diphenylmethyl]-morpholine]

melting point: 158 to 160 °C
SMILES: FC(F)(F)c1cccc(C(c2ccccc2)(c2ccccc2)N2CCOCC2)c1 [Example 1(g), 4-[(3-Trifluoromethylphenyl)-diphenylmethyl]-morpholine]
